# Results as given in patent US8664257B2, “Oxygen-substituted 3-heteroaroylamino-propionic acid derivatives and their use as pharmaceuticals” (Sanofi, priority 2010, dated 2014).
# Read-outs that look alike come from different tables or passages of the source.
# Molecular target: T1, Recombinant human cathepsin A (Homo sapiens, UniProt P10619)
# T1 construct: Recombinant human cathepsin A (residues 29-480, with a C-terminal 10-His tag); 10-His (C); purchased R&D Systems 1049-SE
# T1 sequence (P10619 29-312 limits assumed): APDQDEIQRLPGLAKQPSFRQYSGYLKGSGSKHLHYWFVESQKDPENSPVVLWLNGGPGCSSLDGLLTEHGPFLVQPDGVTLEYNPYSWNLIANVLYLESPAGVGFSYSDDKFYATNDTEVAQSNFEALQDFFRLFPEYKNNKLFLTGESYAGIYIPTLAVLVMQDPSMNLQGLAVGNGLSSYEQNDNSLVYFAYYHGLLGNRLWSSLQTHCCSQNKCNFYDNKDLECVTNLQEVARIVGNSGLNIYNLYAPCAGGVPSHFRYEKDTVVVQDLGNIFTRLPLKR
# T1 sequence (P10619 327-480 limits assumed): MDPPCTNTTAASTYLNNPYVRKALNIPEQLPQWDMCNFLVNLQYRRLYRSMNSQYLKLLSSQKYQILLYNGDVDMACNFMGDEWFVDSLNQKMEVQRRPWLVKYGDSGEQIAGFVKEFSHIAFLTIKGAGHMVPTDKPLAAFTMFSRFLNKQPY
# Experiment: Cathepsin A inhibitory activity
# Type: biochemical
# Outline: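 Read-out was microfluidic separation of cleaved vs. uncleaved Bodipy FL-bradykinin (2 μM), giving turnover, % inhibition and IC50. Compound and 833 ng/ml enzyme met for 15 min RT in pH 5.5 MES/DTT before substrate (15 min RT). The 29-480 His-tagged human enzyme was first activated by cathepsin L, then E-64 (10 μM).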
# [1] = recombinant human cathepsin A 833 ng/ml, Bodipy FL-labeled bradykinin 2 μM, pH 5.5, read-out: CATH-A IC50
# [2] = recombinant human cathepsin A, read-out: Activity (2): Cathepsin A inhibitory activity, IC50 class
# [3] = read-out: Activity (2): Cathepsin A inhibitory activity (IC50 class)
# [4] = read-out: Activity (2): Cathepsin A inhibitory activity, IC50 class
# [5] = pharmacological test "Cathepsin A inhibitory activity", IC50 given as class A/B/C, read-out: Activity (2): Cathepsin A inhibitory activity, IC50 class
Structure (SMILES),IC50 [3] [nM],IC50 [4] [nM],also measured
"COc1cccc(F)c1C(CC(=O)O)NC(=O)c1cc(O)n(-c2ccccc2Cl)n1 (stereo not drawn) [Example 457, 3-{[1-(2-Chloro-phenyl)-5-hydroxy-1H-pyrazole-3-carbonyl]-amino}-3-(2-fluoro-6-methoxy-phenyl)-propionic acid]",–,–,IC50 [1]: 170 nM; IC50 [2]: 100 to 1000 nM
"Cc1ccc([C@H](CC(=O)O)NC(=O)c2cc(OC[C@@](C)(O)C(C)(C)C)n(-c3ccccc3F)n2)cc1 [Example 781, (S)-3-{[1-(2-Fluoro-phenyl)-5-((S)-2-hydroxy-2,3,3-trimethyl-butoxy)-1H-pyrazole-3-carbonyl]-amino}-3-p-tolyl-propionic acid]",< 100,–,–
"CC(C)[C@](C)(O)COc1cc(C(=O)NC(CC(=O)O)C2CCCCC2)nn1-c1ccccc1F (stereo partly drawn) [Example 803, 3-Cyclohexyl-3-{[1-(2-fluoro-phenyl)-5-((S)-2-hydroxy-2,3-dimethyl-butoxy)-1H-pyrazole-3-carbonyl]-amino}-propionic acid]",–,< 100,IC50 [1]: 26.7 nM
CCOc1cc(C(=O)N[C@@H](CC(=O)O)c2ccc(C(F)(F)F)cc2)nn1-c1ccccc1Cl [Example 735],100 to 1000,–,–
O=C(O)CC(NC(=O)c1cc(O)n(-c2cccc(F)c2)n1)c1ccc(Cl)c(Cl)c1 (stereo not drawn) [Example 328],–,100 to 1000,–
"O=C(O)CC(NC(=O)c1cc(O)n(-c2cccc(Cl)c2)n1)c1cccc(C(F)(F)F)c1F (stereo not drawn) [Example 418, 3-{[1-(3-Chloro-phenyl)-5-hydroxy-1H-pyrazole-3-carbonyl]-amino}-3-(2-fluoro-3-trifluoromethyl-phenyl)-propionic acid]",–,–,IC50 [1]: 5290 nM; IC50 [2]: 1000 to 30000 nM
O=C(O)C[C@H](NC(=O)c1cc(O)n(-c2ccccc2F)n1)c1ccc(F)cc1 [Example 236],–,–,IC50 [5]: 100 to 1000 nM
"O=C(O)CC(NC(=O)c1cc(O)n(-c2ccc(Cl)cc2)n1)c1ccc(-c2ccccn2)cc1 (stereo not drawn) [Example 515, 3-{[1-(4-Chloro-phenyl)-5-hydroxy-1H-pyrazole-3-carbonyl]-amino}-3-(4-pyridin-2-yl-phenyl)-propionic acid]",–,–,IC50 [1]: 238 nM; IC50 [2]: 100 to 1000 nM
"Cc1ccc([C@H](CC(=O)O)NC(=O)c2cc(O)n(-c3ccccc3)n2)cc1 [Example 445, (S)-3-[(5-Hydroxy-1-phenyl-1H-pyrazole-3-carbonyl)-amino]-3-p-tolyl-propionic acid]",–,–,IC50 [1]: 130 nM; IC50 [2]: 100 to 1000 nM
"CC(C)(C)[C@](C)(O)COc1cc(C(=O)N[C@@H](CC(=O)O)c2cccc(Cl)c2)nn1-c1ccccc1F [Example 798, (S)-3-(3-Chloro-phenyl)-3-{[1-(2-fluoro-phenyl)-5-((S)-2-hydroxy-2,3,3-trimethyl-butoxy)-1H-pyrazole-3-carbonyl]-amino}-propionic acid]",–,< 100,–
O=C(O)C[C@H](NC(=O)c1cc(O)n(-c2cccc(Cl)c2)n1)c1ccc(F)cc1 [Example 411],–,–,IC50 [2]: 1000 to 30000 nM
CCC(C)(O)COc1cc(C(=O)N[C@@H](CC(=O)O)c2ccccc2C)nn1-c1ccccc1F (stereo partly drawn) [Example 750],< 100,–,–
O=C(O)C[C@H](NC(=O)c1cc(O)n(-c2cccc(F)c2)n1)c1cccc(C(F)(F)F)c1 [Example 318],–,100 to 1000,–
"COc1ccc(F)cc1C(CC(=O)O)NC(=O)c1cc(O)n(-c2ccccc2)n1 (stereo not drawn) [Example 498, 3-(5-Fluoro-2-methoxy-phenyl)-3-[(5-hydroxy-1-phenyl-1H-pyrazole-3-carbonyl)-amino]-propionic acid]",–,–,IC50 [1]: 143 nM; IC50 [2]: 100 to 1000 nM
"O=C(O)CC(NC(=O)c1cc(O)n(-c2ccc(F)cc2F)n1)c1cccc(C(F)(F)F)c1F (stereo not drawn) [Example 385, 3-{[1-(2,4-Difluoro-phenyl)-5-hydroxy-1H-pyrazole-3-carbonyl]-amino}-3-(2-fluoro-3-trifluoromethyl-phenyl)-propionic acid]",–,< 100,IC50 [1]: 60.7 nM
COc1ccc(C(CC(=O)O)NC(=O)c2cc(O)n(-c3cccc(F)c3)n2)c(Cl)c1 (stereo not drawn) [Example 310],–,100 to 1000,–
"COc1ccc(C(F)(F)F)cc1C(CC(=O)O)NC(=O)c1cc(O)n(-c2ccccc2)n1 (stereo not drawn) [Example 548, 3-[(5-Hydroxy-1-phenyl-1H-pyrazole-3-carbonyl)-amino]-3-(2-methoxy-5-trifluoromethyl-phenyl)-propionic acid]",1000 to 30000,–,IC50 [1]: 7760 nM

Structure (SMILES),IC50 [3] [nM],IC50 [4] [nM],also measured
"Cc1cccc([C@H](CC(=O)O)NC(=O)c2cc(OCC3CC3)n(-c3ccccc3F)n2)c1 [Example 690, (S)-3-{[5-Cyclopropylmethoxy-1-(2-fluoro-phenyl)-1H-pyrazole-3-carbonyl]-amino}-3-m-tolyl-propionic acid]",< 100,–,–
O=C(O)C[C@H](NC(=O)c1cc(O)n(-c2ccccc2Cl)n1)c1cccc(Cl)c1 [Example 214],–,–,IC50 [5]: 100 to 1000 nM
COc1ccc(Cl)cc1C(CC(=O)O)NC(=O)c1cc(O)n(-c2ccccc2)n1 (stereo not drawn) [Example 375],–,100 to 1000,–
Cc1ccc(C)c(-n2nc(C(=O)NC(CC(=O)O)c3cc(F)cc(F)c3)cc2O)c1 (stereo not drawn) [Example 56],–,1000 to 30000,–
Cc1cccc(C(CC(=O)O)NC(=O)c2cc(O)n(-c3cccc(F)c3)n2)c1C (stereo not drawn) [Example 432],–,–,IC50 [2]: 100 to 1000 nM
COc1ccc(Cl)cc1C(CC(=O)O)NC(=O)c1cc(O)n(-c2cccc(Cl)c2)n1 (stereo not drawn) [Example 255],–,–,IC50 [5]: 100 to 1000 nM
COc1cccc([C@H](CC(=O)O)NC(=O)c2cc(O)n(-c3ccc(Cl)cc3)n2)c1OC [Example 283],–,100 to 1000,–
O=C(O)C[C@H](NC(=O)c1cc(O)n(-c2cccc(F)c2)n1)c1cccnc1 [Example 334],–,100 to 1000,–
Cc1ccccc1[C@H](CC(=O)O)NC(=O)c1cc(OCC2CCOC2)n(-c2ccccc2F)n1 (stereo partly drawn) [Example 650],< 100,–,–
Cc1ccccc1[C@H](CC(=O)O)NC(=O)c1cc(OCC2(C)COC2)n(-c2ccccc2F)n1 [Example 663],< 100,–,–
"Cc1c(F)cccc1C(CC(=O)O)NC(=O)c1cc(O)n(-c2ccc(Cl)cc2)n1 (stereo not drawn) [Example 468, 3-{[1-(4-Chloro-phenyl)-5-hydroxy-1H-pyrazole-3-carbonyl]-amino}-3-(3-fluoro-2-methyl-phenyl)-propionic acid]",–,–,IC50 [1]: 280 nM; IC50 [2]: 100 to 1000 nM
O=C(O)C[C@@H](NC(=O)c1cc(O)n(-c2ccccc2F)n1)c1ccc(-c2ccc(F)cc2)cc1 [Example 147],–,–,IC50 [5]: < 100 nM
O=C(O)CC(NC(=O)c1cc(O)n(-c2ccccc2)n1)c1ccc(-c2cccc(F)c2)cc1 (stereo not drawn) [Example 171],–,–,IC50 [5]: 100 to 1000 nM
O=C(O)CC(NC(=O)c1cc(O)n(-c2ccccc2)n1)C1CC1 (stereo not drawn) [Example 17],–,1000 to 30000,–
"COC[C@H](C)NC(=O)C[C@H](NC(=O)c1cc(OC)n(-c2ccccc2F)n1)c1ccccc1C [Example 937, 1-(2-Fluoro-phenyl)-5-methoxy-1H-pyrazole-3-carboxylic acid [(S)-2-((S)-2-methoxy-1-methyl-ethylcarbamoyl)-1-o-tolyl-ethyl]-amide]",–,–,IC50 [2]: < 100 nM
CN(C)c1ccc(C(CC(=O)O)NC(=O)c2cc(O)n(-c3ccc(F)cc3)n2)c(Cl)c1 (stereo not drawn) [Example 490],–,–,IC50 [2]: 1000 to 30000 nM

# Now from value to compound, other results behind:
IC50 [3] [nM],IC50 [4] [nM],Structure (SMILES),also measured
< 100,–,Cc1ccc([C@H](CC(=O)O)NC(=O)c2cc(OCC(C)(O)c3ccccc3)n(-c3ccccc3F)n2)cc1 (stereo partly drawn) [Example 636],–
100 to 1000,–,O=C(O)CC(NC(=O)c1cc(O)n(-c2ccccc2F)n1)c1ccc(-c2ccccc2F)cc1 (stereo not drawn) [Example 584],–
–,100 to 1000,O=C(O)C[C@H](NC(=O)c1cc(O)n(-c2ccc(F)cc2)n1)c1c(F)cccc1F [Example 368],–
< 100,–,Cc1ccccc1[C@H](CC(=O)O)NC(=O)c1cc(OCc2ccccn2)n(-c2ccccc2F)n1 [Example 640],–
–,100 to 1000,O=C(O)CC(NC(=O)c1cc(O)n(-c2ccccc2)n1)c1cccnc1 (stereo not drawn) [Example 16],–
100 to 1000,–,O=C(O)C[C@H](NC(=O)c1cc(OCC2CC2)n(-c2ccccc2F)n1)c1ccccc1F [Example 699],–
–,1000 to 30000,Cc1ccc(C)c(-n2nc(C(=O)NC(CC(=O)O)c3ccc(C#N)cc3)cc2O)c1 (stereo not drawn) [Example 52],–
100 to 1000,–,"Cc1ccc(C(CC(=O)O)NC(=O)c2cc(O)n(-c3ccccc3F)n2)c(F)c1 (stereo not drawn) [Example 555, 3-(2-Fluoro-4-methyl-phenyl)-3-{[1-(2-fluoro-phenyl)-5-hydroxy-1H-pyrazole-3-carbonyl]-amino}-propionic acid]",IC50 [1]: 239 nM
< 100,–,Cc1cc(COc2cc(C(=O)N[C@@H](CC(=O)O)c3ccccc3C)nn2-c2ccccc2F)on1 [Example 643],–
–,100 to 1000,COc1ccc([C@H](CC(=O)O)NC(=O)c2cc(O)n(-c3ccc(F)cc3F)n2)cn1 [Example 390],–
–,1000 to 30000,COc1ccc(C(CC(=O)O)NC(=O)c2cc(O)n(-c3ccccc3)n2)cc1F (stereo not drawn) [Example 68],–
< 100,–,CCOc1cc(C(=O)N[C@@H](CC(=O)O)c2ccc(Cl)cc2)nn1-c1ccccc1Cl [Example 733],–
100 to 1000,–,O=C(O)CC(NC(=O)c1cc(OCC2CC2)n(-c2ccccc2F)n1)c1ccc(F)cc1 (stereo not drawn) [Example 698],–
–,< 100,O=C(O)CC(NC(=O)c1cc(O)n(-c2ccccc2F)n1)c1cccc(Cl)c1Cl (stereo not drawn) [Example 402],–
